{"source": "patent US20220117972A1", "about": "“USE OF PPAR-DELTA AGONISTS IN THE TREATMENT OF MITOCHONDRIAL MYOPATHY” (Reneo Pharmaceuticals, Inc., priority 2019, published 2022)", "key": {"LXRβ": {"target": "T1, LXRβ (Homo sapiens, UniProt P55055)", "T1 sequence (P55055 1-460)": "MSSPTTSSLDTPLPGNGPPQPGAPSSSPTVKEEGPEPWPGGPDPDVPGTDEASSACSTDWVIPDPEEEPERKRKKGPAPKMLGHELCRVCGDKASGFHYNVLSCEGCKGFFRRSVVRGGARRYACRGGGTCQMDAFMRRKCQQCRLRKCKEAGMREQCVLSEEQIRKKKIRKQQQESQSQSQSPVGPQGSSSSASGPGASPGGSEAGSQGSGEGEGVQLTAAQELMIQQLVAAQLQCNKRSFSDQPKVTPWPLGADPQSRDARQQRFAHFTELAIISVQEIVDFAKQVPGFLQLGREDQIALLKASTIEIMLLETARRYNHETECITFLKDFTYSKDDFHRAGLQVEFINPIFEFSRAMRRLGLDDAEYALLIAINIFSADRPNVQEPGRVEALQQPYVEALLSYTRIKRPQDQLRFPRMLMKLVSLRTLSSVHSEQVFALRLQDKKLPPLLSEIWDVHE", "experiment": "nuclear receptor LXRβ activity", "assay_type": "cell-based"}, "PPARα": {"target": "T2, PPARα (UniProt Q4PNY3)", "T2 construct": "This is inferred from the cell pool name 'UAS-bla-Gal4' and from the general description in b82 and b85", "T2 sequence (Q4PNY3 1-467)": "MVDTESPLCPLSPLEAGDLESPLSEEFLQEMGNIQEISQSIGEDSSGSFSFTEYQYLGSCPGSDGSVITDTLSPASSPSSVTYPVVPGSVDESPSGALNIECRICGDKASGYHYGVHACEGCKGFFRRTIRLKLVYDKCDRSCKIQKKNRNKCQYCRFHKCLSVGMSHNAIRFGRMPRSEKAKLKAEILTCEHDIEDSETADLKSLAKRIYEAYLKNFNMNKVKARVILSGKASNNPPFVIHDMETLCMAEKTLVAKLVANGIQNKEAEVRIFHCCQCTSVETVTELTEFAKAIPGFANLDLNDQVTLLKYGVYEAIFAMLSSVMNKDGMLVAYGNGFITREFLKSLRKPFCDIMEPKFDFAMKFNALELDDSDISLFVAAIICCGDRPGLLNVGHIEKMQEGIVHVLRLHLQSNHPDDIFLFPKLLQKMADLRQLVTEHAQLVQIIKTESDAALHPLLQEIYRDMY", "experiment": "PPAR receptor transactivation assay, monkey PPARα", "assay_type": "cell-based"}, "rat muscle cell lines": {"tested_on": "rat muscle cell lines", "experiment": "fatty acid oxidation in rat muscle cell line", "assay_type": "cell-based", "conditions": "in vitro"}, "hPPARδ": {"target": "T3, hPPARδ (Homo sapiens, UniProt Q03181)", "T3 construct": "expressed in transfected cells; host or cells: Jump-In GripTite HEK293", "T3 sequence (Q03181 211-439 limits assumed)": "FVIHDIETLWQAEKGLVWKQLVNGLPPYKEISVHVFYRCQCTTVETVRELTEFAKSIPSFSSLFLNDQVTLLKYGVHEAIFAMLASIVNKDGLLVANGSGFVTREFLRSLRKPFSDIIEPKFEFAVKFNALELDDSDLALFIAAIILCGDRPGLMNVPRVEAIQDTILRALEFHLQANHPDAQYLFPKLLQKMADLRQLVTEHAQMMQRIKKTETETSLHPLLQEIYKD", "experiment": "PPAR receptor transactivation assay, human PPARδ", "assay_type": "cell-based", "protocol": "Compound 1 was tested on all three human PPAR subtypes (hPPAR): hPPARα, hPPARγ, and hPPARδ. All assays were repeated at least three times for each subtype.\nThe genes of interest were synthesized and cloned into an appropriate Jump-In™ retargeting vector following the User Guide of the Jump-In™ T-REx™ HEK293 Retargeting Kit (ThermoFisher Catalog No A15008). For example, the vector will be used to transfect and retarget the Jump-In™ HEK293 GripTite™ parental cell line. Stable pools will be antibiotic-selected for about 21 days and tested for target gene expression by functional assay.\nJump-In™ GripTite™ HEK293 parental cells were plated at 60-80% confluency in a T-75 flask in growth medium without antibiotics and transfected with a 1:1 ratio of expression construct and R4 integrase expression construct (20 μg DNA total) using Lipofectamine® LTX (50 μL) and PLUS™ Reagent (20 μL). Following a 48 hours incubation, cells were selected with 600 μg/mL Geneticin® and 10 μg/mL Blasticidin for ˜21 days in growth medium.\nJump-In™ GripTite™ HEK293 rPPAR Alpha, Delta or Gamma UAS-bla-Gal4 cell pools were plated in a 384-well plate format (20,000 cells per well) in OptiMeM without FBS in replicates (n=4). Cells were allowed to adhere for 8 hours before addition of Compound 1 (1 mM top concentration, 3-fold dilutions, 10-point titration). After 16 hours, the cells were loaded with LiveBLAzer®, a fluorescent BLA substrate that gives a blue/green readout of expressing/non-expressing cells, respectively. The blue/green readout was measured on a fluorescent plate reader (Tecan Safire II)."}, "FXR": {"target": "T4, FXR (Homo sapiens, UniProt Q96RI1)", "T4 sequence (Q96RI1 1-486)": "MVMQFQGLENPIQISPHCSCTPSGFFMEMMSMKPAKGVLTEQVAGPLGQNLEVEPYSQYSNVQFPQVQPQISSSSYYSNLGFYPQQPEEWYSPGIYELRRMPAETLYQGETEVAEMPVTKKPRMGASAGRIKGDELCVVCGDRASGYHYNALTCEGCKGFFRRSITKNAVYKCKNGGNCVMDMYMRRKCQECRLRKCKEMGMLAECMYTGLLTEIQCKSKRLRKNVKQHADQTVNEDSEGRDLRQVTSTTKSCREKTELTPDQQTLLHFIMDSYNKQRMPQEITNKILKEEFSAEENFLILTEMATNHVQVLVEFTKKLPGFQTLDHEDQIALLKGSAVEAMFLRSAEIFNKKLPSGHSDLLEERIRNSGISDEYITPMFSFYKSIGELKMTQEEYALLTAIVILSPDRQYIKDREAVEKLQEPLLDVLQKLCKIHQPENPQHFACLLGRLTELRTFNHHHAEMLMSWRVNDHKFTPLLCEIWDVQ", "experiment": "nuclear receptor FXR activity", "assay_type": "cell-based"}, "[1]": {"tested_on": "human retinoid X receptor (hRXR)", "experiment": "human retinoid X receptor activity", "assay_type": "cell-based"}, "PGC1, CPT1b expression": {"tested_on": "PGC1, CPT1b expression", "experiment": "in vivo gene expression in mouse muscle, second study (time course)", "conditions": "male C57BL/6 mice, 30 mg/kg once daily, at 48 hrs", "protocol": "In a second study, male C57BL/6 mice were dosed once daily for four consecutive days. On the first day of treatment all mice in each group received a single dose of either the vehicle or Compound 1 at 30 mg/kg. Following the dose administration on the first day, five mice from each group were anesthetized and euthanized at each of the following time points: 1, 2, 4, 8, 24, 48, 72 and 96 hours. Animals left after the time point 24 hours received the second dose. Animals left after the time point 48 hours received the third dose. Animals left after the time point 72 hours received the fourth dose. Mice designated for time point 96 hours were euthanized on day 5."}}}
{"smiles": "Cc1cc(OC/C=C(/c2ccc(F)cc2)c2ccc(C#CCN3CCOCC3)cc2)ccc1OCC(=O)O", "note": "[Compound 1, (E)-[4-[3-(4-Fluorophenyl)-3-[4-[3-(morpholin-4-yl)propynyl]phenyl]allyloxy]-2-methyl-phenoxy]acetic acid]", "values": [{"measurement": "activity on the nuclear receptor LXRβ", "setting": "LXRβ", "value": "did not show any"}, {"measurement": "EC50", "setting": "PPARα", "value": "> 1000", "unit": "nM"}, {"measurement": "fatty acid oxidation", "setting": "rat muscle cell lines", "value": "dose-dependent increase"}, {"measurement": "EC50", "setting": "hPPARδ; Human PPARδ", "value": 31, "unit": "nM"}, {"measurement": "selectivity for PPARδ over PPARα and PPARγ", "setting": "hPPARδ; in humans, monkey, and mouse", "value": "significantly greater selectivity"}, {"measurement": "agonist type at PPARδ", "setting": "hPPARδ; in some cases", "value": "full agonist"}, {"measurement": "activity on the nuclear receptor FXR", "setting": "FXR", "value": "did not show any"}, {"measurement": "hRXR activity", "setting": "[1]", "value": "did not show any"}, {"measurement": "expression of CPT1b", "setting": "PGC1, CPT1b expression", "value": "increased the expression"}, {"measurement": "expression of PGC1", "setting": "PGC1, CPT1b expression", "value": "increased the expression"}]}
